Source: the supplement of paper PMC11451515

Columns and labels:
Assay in all cases: AUC of viability dose-response curve (% viability x log10 dose units); higher = less sensitive
Conditions in all cases: 48 h
[1] = tested on: NOMO1
Method in brief: (§1)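 Over 48 h at 37°C, leukemia cells in 1536-well plates (500 or 1000 cells/well), adapted to each medium, received library compounds in DMSO at 11 threefold doses from 47 μM to 0.79 nM. CellTiter-Glo One luminescence, normalised per plate to DMSO and cell-free wells, was fitted by a four-parameter log-logistic function of log10 dose. The area under the curve was then integrated by trapezoidal rule, after scaling curves above full viability and removing those that failed quality control.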

[2] = tested on: P12-Ichikawa
Method in brief: as §1

[3] = tested on: SEM cells
Method in brief: as §1

[4] = RPMI 5 mM glucose + 10% dialyzed FBS

SMILES | AUC of viability dose-response curve ([1]; HPLM + 10% dialyzed FBS) | AUC of viability dose-response curve ([1]; RPMI 5 mM glucose + 10% FBS) | AUC of viability dose-response curve [1, 4] | AUC of viability dose-response curve ([2]; HPLM + 10% dialyzed FBS) | AUC of viability dose-response curve ([2]; RPMI 5 mM glucose + 10% FBS) | AUC of viability dose-response curve [2, 4] | AUC of viability dose-response curve ([3]; HPLM + 10% dialyzed FBS) | AUC of viability dose-response curve ([3]; RPMI 5 mM glucose + 10% FBS) | AUC of viability dose-response curve [3, 4]
C[C@]12CC[C@H]3[C@@H](CC[C@H]4NC(=O)\C=C/[C@]34C)[C@@H]1CC[C@@H]2C(=O)NC5=CC(=CC=C5C(F)(F)F)C(F)(F)F | 435 | 440 | 461 | 456 | 455 | 452 | 432 | 456 | 442
CN1CCN(C2=Nc3cc(Cl)ccc3Nc3ccccc32)CC1 | 463 | 471 | 470 | 477 | 472 | 471 | 459 | 428 | 452
CN[C@@H](C)[C@H]1[C@H](O)C[C@@]2(C)[C@@H]3CC[C@H]4C(C)(C)[C@@H](NC)CC[C@@]45C[C@@]35CC[C@]12C | 445 | 454 | 445 | 464 | 450 | 425 | 376 | 392 | 399
CNc1nc(Nc2ccc(C(=O)N3CCOCC3)cc2OC)ncc1Cl | 434 | 463 | 450 | 448 | 454 | 466 | 434 | 456 | 466
CCN(CC)CCOc1ccc(/C(=C(\Cl)c2ccccc2)c2ccccc2)cc1 | 458 | 471 | 473 | 466 | 469 | 456 | 470 | 462 | 470
S=C(NCc1ccc2c(c1)OCO2)N1CCN(c2ncnc3c2oc2ccccc23)CC1 | 416 | 438 | 445 | 406 | 387 | 389 |  |  | 
C[C@](Cc1c[nH]c2ccccc12)(NC(=O)OC1C2CC3CC(C2)CC1C3)C(=O)NC[C@H](NC(=O)CCC(=O)O)c1ccccc1 (some centres undefined) | 455 | 413 | 435 | 469 | 461 | 456 | 447 | 433 | 430
O=C(c1ccc(F)cc1)N1CCC[C@H](c2nc(-c3ccc(F)cc3)no2)C1 | 467 | 453 | 472 | 460 | 459 | 459 | 453 | 455 | 475
CNCC(O)c1ccc(O)cc1 (centres undefined) | 446 | 455 | 441 | 464 | 466 | 469 | 423 | 452 | 459
Cc1nn(Cc2ccccc2Cl)c(C)c1CN(C)CC(O)COc1ccc(Cl)cc1 (centres undefined) | 445 | 428 | 436 | 463 | 440 | 435 | 436 | 432 | 430
ClC1=CC=C(C=C1)C(C#N)C2=C(Cl)C=C(C=C2Cl)N3\N=C/C(=O)NC3=O (centres undefined) | 453 | 458 | 455 | 460 | 454 | 459 | 428 | 415 | 451
COc1ccccc1OCC(O)COC(N)=O (centres undefined) |  |  |  | 466 | 461 | 461 | 467 | 465 | 459
O=C1[C@H](Cc2ccc(O)cc2)N2C(=O)CCN(C(=O)NCc3ccccc3)[C@H]2CN1Cc1cccc2ccccc12 |  |  |  | 404 | 375 | 361 | 334 | 384 | 363
Cc1nc2cnc3ccc(C#Cc4cccnc4)cc3c2n1-c1ccc(C(C)(C)C#N)cc1 | 264 | 259 | 268 | 314 | 251 | 255 |  |  | 
CC(C)c1noc(N2CCC(COc3ccc(-c4ccc([S+](C)(=O)[O-])cc4)nc3)CC2)n1 | 467 | 459 | 463 | 454 | 453 | 452 |  |  | 
COc1ccc(-c2ccc3ncc4c(c3c2)n(-c2ccc(N3CCNCC3)c(C(F)(F)F)c2)c(=O)n4C)cn1 | 209 | 255 | 218 |  |  |  |  |  | 
Cn1cnc2c(F)c(Nc3ccc(Br)cc3F)c(C(=O)NOCCO)cc21 |  |  |  |  |  |  | 392 | 382 | 363
FC1=C(C=C(C\C2=N\NC(=O)C3=C2C=CC=C3)C=C1)C(=O)N4CCN(CC4)C(=O)C5CC5 | 439 | 400 | 422 | 421 | 390 | 393 |  |  | 
CC(C)c1nc(CN(C)C(=O)N[C@H](C(=O)N[C@@H](Cc2ccccc2)C[C@H](O)[C@H](Cc2ccccc2)NC(=O)OCc2cncs2)C(C)C)cs1 |  |  |  | 425 | 411 | 396 | 410 | 429 | 427
c1ccc(CCCN2CCN(CCOC(c3ccccc3)c3ccccc3)CC2)cc1 | 434 | 409 | 405 | 431 | 432 | 406 |  |  | 
